Patent US8476276B2, “Pharmaceutical compositions based on kinin B2 receptor antagonists and corticosteroids, and their use” (Istituto Luso Farmaco d'Italia S.p.A., priority 2008, dated 2013)

Tests used:
[1] = test system: carrageenan-induced joint oedema; assay: Carrageenan-induced knee arthritis, joint oedema (knee joint diameter); type: in vivo, rat; conditions: for reduction of carrageenan-induced knee swelling: hydrocortisone experiment, 100 μg i.a. 30 min before carrageenan
Experimental: (§1) The activity of MEN16132, icatibant and cortisones was measured in an experimental model of arthritis induced by intra-articular injection of carrageenan which causes a strong inflammatory effect. […] The weight imbalance on the two weight-bearing paws, evaluated in a non-invasive way with the incapacitance test, measures the pain resulting from the joint inflammation. The diameter of the knee joint was also measured to measure the oedema.

[2] = test system: carrageenan-induced joint pain; assay: Carrageenan-induced knee arthritis, joint pain (incapacitance test); type: in vivo, rat
Experimental: as §1

[3] = test system: cell infiltration in the airways caused by LPS; assay: LPS-induced airway inflammation, leucocytes in bronchoalveolar washing; type: in vivo, guinea pig; conditions: for reduction of the number of inflammatory cells in the airways after LPS: aerosol of a 1 mg/ml solution for 15 min
[4] = test system: human airway muscle cells; assay: LPS-induced PGE2 release in cultures of human airway muscle cells; type: cell-based; conditions: LPS 1 μg/ml for 24 hours
Experimental: Similar findings were obtained with an in vitro model, in cultures of human airway muscle cells stimulated for 24 hours with 1 μg/ml LPS, where an approximately 16-fold increase in the production of PGE2 was observed compared with the control.

[5] = test system: symptomatic OA of the knee; conditions: cited from earlier work
[6] = 100 μg/25 μl i.a. 30 min before carrageenan, maximum effect 6 hours
[7] = 100 μg i.a. 30 min before carrageenan, 6 hours after the irritant

In the case of Cc1cc(C)c2cccc(OCc3c(Cl)ccc(S(=O)(=O)NC4(C(=O)N5CCN(C(=O)[C@@H](N)CCC[N+](C)(C)C)CC5)CCOCC4)c3Cl)c2n1 [MEN16132, (4-(S)-amino-5-(4-{4-[2,4-dichloro-3-(2,4-dimethyl-quinolin-8-yloxymethyl)-benzenesulphonylamino]-tetrahydro-pyran-4-carbonyl}-piperazin-1-yl)-5-oxo-pentyl]-trimethyl-ammonium], the “reduction of carrageenan-induced oedema” value [1, 6] is reported as 45±3%, the “reduction of carrageenan-induced knee swelling” value [1] is reported as 42±3% and the “reduction of joint pain” value [2, 7] is reported as 38±4%. For the same compound, the “reduction of the number of inflammatory cells in the airways after LPS” value [3] was 6% and the “reduction of LPS-induced release of PGE2” value ([4]; 100 nM) was 39%.

For C[C@@H]1C[C@H]2[C@@H]3CCC4=CC(=O)C=C[C@]4(C)[C@@]3(F)[C@@H](O)C[C@]2(C)[C@@]1(O)C(=O)CO [dexamethasone, Dexamethasone], the “reduction of carrageenan-induced oedema” value [1, 6] was 57±3%, the “reduction of carrageenan-induced oedema” value ([1]; dexamethasone 10 μg i.a.) was “inactive” and the “reduction of joint pain” value ([2]; 10 μg i.a.) was 14±4%. The “reduction of joint pain” value [2, 7] was 44±3%, the “reduction of cell infiltration in the airways after LPS” value ([3]; aerosol of a 0.03 mg/ml solution for 15 min) was 8% and the “reduction of LPS-induced release of PGE2” value ([4]; 1 μM) was 45%.

For C[C@]12CCC(=O)C=C1CC[C@@H]1[C@@H]2[C@@H](O)C[C@@]2(C)[C@H]1CC[C@]2(O)C(=O)CO [hydrocortisone, Hydrocortisone], the “reduction of carrageenan-induced knee swelling” value [1] was −4±3%.

For NC(N)=NCCC[C@@H](N)C(=O)N[C@@H](CCCN=C(N)N)C(=O)N1CCC[C@H]1C(=O)N1C[C@H](O)C[C@H]1C(=O)NCC(=O)N[C@@H](Cc1cccs1)C(=O)N[C@@H](CO)C(=O)N1Cc2ccccc2C[C@@H]1C(=O)N1[C@H](C(=O)N[C@@H](CCCN=C(N)N)C(=O)O)C[C@@H]2CCCC[C@@H]21 [icatibant, H-D-Arg-Arg-Pro-Hyp-Gly-Thi-Ser-D-Tic-Oic-Arg-OH], the “reduction of carrageenan-induced oedema” value [1, 6] was 48±5%, the “reduction of the number of inflammatory cells in the airways after LPS” value [3] was 5% and the “reduction of LPS-induced release of PGE2” value ([4]; 100 nM) was 30%. The “duration of analgesic response after the treatment” value ([5]; intra-articular infiltration, 3×500 μg injections one week apart) was “up to 3 months” and the “intensity of pain in the knee” value ([5]; phase II, single intra-articular administration 90 μg/1 ml, versus placebo) was “reduced the intensity of pain in the knee to a greater extent than the placebo”.
